From patent US6159979A, “Bicyclic aryl or a bicyclic heterocyclic ring containing compounds having a combined 5HT1A, 5HT1B and 5HT1D receptor antagonistic activity” (SmithKline Beecham p.l.c., priority 1997, dated 2000)

Assays:
5-HT1A receptors = biological target: T1, 5-HT1A receptors (Homo sapiens, UniProt P08908); assay: 5-HT1A receptor binding ([3H]-8-OH DPAT, HEK 293 cell homogenate); conditions: HEK 293 cells expressing 5-HT1A receptors; [3H]-8-OH DPAT (1nM); pH 7.7, 37° C., 45 minutes; read-out: pKi values at 5-HT1A (converted)
T1 construct: expressed in transfected cells; host or cells: HEK 293
T1 sequence (P08908 1-422): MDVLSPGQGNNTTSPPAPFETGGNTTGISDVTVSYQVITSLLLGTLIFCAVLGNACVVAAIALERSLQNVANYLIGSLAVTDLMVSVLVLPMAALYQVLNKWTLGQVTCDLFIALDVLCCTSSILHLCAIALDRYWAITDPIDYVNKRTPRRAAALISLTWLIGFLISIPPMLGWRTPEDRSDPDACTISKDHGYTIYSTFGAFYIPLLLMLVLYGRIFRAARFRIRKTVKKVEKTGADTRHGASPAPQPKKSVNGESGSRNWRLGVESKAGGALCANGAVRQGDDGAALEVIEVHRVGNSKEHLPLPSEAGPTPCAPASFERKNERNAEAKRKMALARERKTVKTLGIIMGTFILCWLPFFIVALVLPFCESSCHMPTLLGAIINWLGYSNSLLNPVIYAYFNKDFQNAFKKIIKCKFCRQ
Method: (§1) 5-HT1A, 5-HT1B and 5-HT1D Receptor Binding
(§2) HEK 293 cells expressing 5-HT1A receptors (4×10^7 /ml) were homogenised in Tris buffer and stored in 1 ml aliquots. CHO cells expressing 5-HT1B receptors (4×10^7 cells/ml) were homogenised in Tris buffer and stored in 1.5 ml aliquots. CHO cells expressing 5-HT1D receptors (0.563×10^8 /ml) were homogenised in Tris buffer and stored in 1 ml aliquots.
(§3) 0.4 ml of a cell suspension was incubated with [^3 H]-5-HT (4nM) for 5-HT1B/1D receptors and [^3 H]-8-OH DPAT (1nM) for 5-HT1A receptors in Tris Mg HCl buffer (pH 7.7) and test drug, at 37° C. for 45 minutes. Each test drug was tested at 10 concentrations (0.01 mM to 0.3 nM final concentration), with non-specific binding defined using 0.01 mM 5-HT. The total assay volume was 0.5 ml. Incubation was stopped by rapid filtration using a Packard Filtermate (filters pre-soaked in 0.3% polyethylenimine) and radioactivity measured by Topcount scintillation counting. pKi values were calculated from the IC50 generated by an iterative least squares curve fitting programme.

5-HT1B receptors = biological target: T2, 5-HT1B receptors (Homo sapiens, UniProt P28222); assay: 5-HT1B receptor binding ([3H]-5-HT, CHO cell homogenate); conditions: CHO cells expressing 5-HT1B receptors; [3H]-5-HT (4nM); pH 7.7, 37° C., 45 minutes; read-out: pKi values at 5-HT1B (converted)
T2 construct: expressed in transfected cells; host or cells: CHO
Method: as §1, §2, §3

5-HT1D receptors = biological target: T3, 5-HT1D receptors (Homo sapiens, UniProt P28221); assay: 5-HT1D receptor binding ([3H]-5-HT, CHO cell homogenate); conditions: CHO cells expressing 5-HT1D receptors; [3H]-5-HT (4nM); pH 7.7, 37° C., 45 minutes; read-out: pKi values at 5-HT1D (converted)
T3 construct: expressed in transfected cells; host or cells: CHO
Method: as §1, §2, §3

Measured: Ki

T3 sequence (P28221 whole entry): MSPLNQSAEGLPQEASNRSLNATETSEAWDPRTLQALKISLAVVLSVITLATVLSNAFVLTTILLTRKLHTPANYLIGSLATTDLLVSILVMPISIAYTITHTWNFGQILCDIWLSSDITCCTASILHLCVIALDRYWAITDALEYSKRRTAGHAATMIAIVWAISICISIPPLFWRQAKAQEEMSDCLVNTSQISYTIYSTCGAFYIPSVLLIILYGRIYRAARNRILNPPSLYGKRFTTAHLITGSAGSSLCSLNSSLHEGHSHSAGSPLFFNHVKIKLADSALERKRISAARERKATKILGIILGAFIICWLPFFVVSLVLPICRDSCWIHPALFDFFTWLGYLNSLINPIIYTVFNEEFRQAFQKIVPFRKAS
T2 sequence (P28222 whole entry): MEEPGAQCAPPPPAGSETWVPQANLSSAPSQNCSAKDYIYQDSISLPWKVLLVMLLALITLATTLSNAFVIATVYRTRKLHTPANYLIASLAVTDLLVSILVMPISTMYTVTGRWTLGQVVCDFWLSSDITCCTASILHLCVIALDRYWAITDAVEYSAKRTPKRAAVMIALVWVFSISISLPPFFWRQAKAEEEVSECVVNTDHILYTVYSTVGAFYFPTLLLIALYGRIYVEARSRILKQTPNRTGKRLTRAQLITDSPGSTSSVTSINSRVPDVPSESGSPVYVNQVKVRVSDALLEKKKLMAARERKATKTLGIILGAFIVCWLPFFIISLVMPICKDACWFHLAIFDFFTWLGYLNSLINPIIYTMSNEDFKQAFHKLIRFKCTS

COc1ccc(NC(=O)Cc2ccc(-c3ccncc3)c3ccccc23)cc1N1CCN(C)CC1 [Example 10, N-[4-Methoxy-3-(4-methylpiperazin-1-yl)phenyl]-4-(pyridin-4-yl)naphth-1-ylacetamide]
< 10 nM: all assays above

CN1CCN(c2cc(NC(=O)Nc3ccc(-c4ccncc4)c4ccccc34)ccc2Cl)CC1 [Example 11, N-[4-Chloro-3-(4-methylpiperazin-1-yl)phenyl]-N'-[4-(pyridin-4-yl)naphth-1-yl]urea]
< 10 nM: all assays above

COc1ccc(NC(=O)Cc2ccc(-c3cccnc3)c3ccccc23)cc1N1CCN(C)CC1 [Example 28, N-[4-Methoxy-3-(4-methylpiperazin-1-yl)phenyl]-4-(pyridin-3-yl)naphth-1-ylacetamide]
< 10 nM: all assays above

COc1ccc(NC(=O)Nc2cccc3c(-c4ccccc4)cccc23)cc1N1CCN(C)CC1 [Example 33, N-[4-Methoxy-3-(4-methylpiperazin-1-yl)phenyl]-N'-[5-phenylnaphth-1-yl]urea]
< 10 nM: all assays above

CN1CCN(c2cc(NC(=O)Cc3ccc(-c4ccncc4)c4ccccc34)ccc2Br)CC1 [Example 38, N-[4-Bromo-3-(4-methylpiperazin-1-yl)phenyl]-4-(pyridin-4-yl)naphth-1-ylacetamide]
< 10 nM: all assays above

COc1ccc(NC(=O)Nc2cccc3c(-c4cccc(C(C)=O)c4)cccc23)cc1N1CCN(C)CC1 [Example 40, N-[5-(3-Acetylphenyl)naphth-1-yl]-N'-[4-methoxy-3-(4-methylpiperazin-1-yl)phenyl]urea]
< 10 nM: all assays above
